# Read-outs that look alike come from different tables or passages of the source. Ends that are not written are not given here.
# Experiments:
# Hep3B human HCC cells = experiment: Confocal microscopy of peptide binding to Hep3B cells; format: cell-based
# Method: (§1) FIGS. 6-2A-Q show validation of specific peptide binding to cells in vitro. […] The Hep3B versus SK-Hep1 difference was also larger for antibody than QLE (P=2.3×10^−8, 6.0-fold larger). Intensity was measured with 6 replicates per condition and fitted to an ANOVA model with terms for 9 means to log-transformed data. […] We further validated specific peptide binding to GPC3 using siRNA knockdown. […] Q) Quantified fluorescence intensities. The siCL vs siGPC3 difference was 7.4 times bigger for ALL than the same difference for QLE (P=7.8×10^−5), and the difference for antibody was 8.9 times bigger than for QLE (P=2.5×10^−5), by ANOVA on log-transformed data. Results are an average of 6 images collected independently.
# (§2) On confocal microscopy, it was shown that ALL*-Cy5.5 binds to the surface (arrows) of cells with different levels of GPC3 expression. […] GPC3 is highly overexpressed in Hep3B cell cytosol and membrane while moderately expressed in HepG2 cells. No GPC3 expression is observed in SK-Hep1 cells. Tubulin serves as loading control for either cytosol or membrane fractions loaded.
# HepG2 human HCC cells = experiment: Confocal microscopy of peptide binding to HepG2 cells; format: cell-based
# Method: as §1, §2
# Hep3B cells = experiment: Apparent association time constant on Hep3B cells by flow cytometry; format: binding, human
# Method: The apparent association time constant (k) was also measured for the optimized GPC3 peptide to provide an assessment of how rapidly the peptide binds. The ALL*-Cy5.5 peptide reagent was incubated with Hep3B cells over time intervals ranging from 0 to 40 min. Fluorescence intensities were measured on flow cytometry. The median fluorescence intensity (y) was ratioed with that of Hep3B cells without addition of peptide reagent at different time points (t).
# Hep3B xenograft = experiment: In vivo NIR laparoscopic imaging of HCC xenograft tumors; parameters: species or system mice
# Method: Human HCC cells Hep3B and SK-Hep1 were cultured in Eagle's Minimum Essential Medium (EMEM) at 37° C. in 5% CO2, and supplemented with 10% fetal bovine serum (FBS) and 1% penicillin/streptomycin. Western blotting was performed to validate expression level of GPC3. Cells were diluted in growth factor reduced (GFR) Matrigel Matrix (Corning), and injected into one flank of female (to avoid male dominance within a cage) nude athymic mice (nu/nu, Jackson Laboratory) at 4 to 6 weeks of age with weight between 20 to 25 grams. ˜5×10^6 cells were implanted per mouse.
# A standard surgical laparoscope (#49003 AA, HOPKINS® II Straight Forward Telescope 0°, Karl Storz) that is ˜10 mm in diameter and has a 31 cm length rigid sheath was adapted to collect reflectance and fluorescence concurrently. Nude mice with human HCC xenograft 2 weeks post implantation were tail vein injected with 200 μL 300 μM GPC3 peptide ALL*-Cy5.5. During imaging, the mice were anesthetized with inhaled isoflurane. We first used laparoscope with white light illumination to exam the xenograft. Laparoscopic images were taken two hours post injection in both fluorescence and reflection mode simultaneously with excitation solid state diode laser (660-S, Toptica Photonics) to deliver excitation at λex=660 nm into the fiber optic light guide. Images were collected at 5 frames/sec with a laser power of 1.2 mW. Hoechst 33342 (H1399, Life Technologies) at a dose of 10 mg/kg diluted in 200 μL of PBS was delivered intravenously via a tail vein injection to stain the cell nuclei 30 minutes before sacrificing the mouse. Xenograft tumors were resected and confocal fluorescence images were collected with Cy5.5 and DAPI filters 50 μm beneath the surface using a confocal microscope (Leica SPSX Upright 2-Photon Confocal Microscope). Following imaging, resected xenografts were fixed and formalin embedded for immunohistochemistry and H&E staining as described previously.
# Fluorescence images of mouse HCC xenograft taken at 2 hrs post peptide injection were registered with corresponding reflectance images taken simultaneously. The fluorescence intensity of each pixel in the image was divided by intensity of corresponding pixel in the reflectance image in order to account for the difference in distance between each pixel and the laser source. A heat map image was generated from the resulting ratios at each pixel. Image segmentation was performed automatically by custom Matlab (Mathworks) software program using Ostu's Method [Otsu, Automatica, 11(285-296): 23-27 (1975)]. Target to background ratio of each processed image was calculated by dividing the average intensity of pixels inside the segmented tumor and that of those within 30 pixels outside of segmentation outline.
# Hep3B xenograft tumors = experiment: Ex vivo confocal validation on Hep3B xenograft sections and normal liver; parameters: species or system mice
# Description: (§3) The specimens were also sectioned for collection of confocal images to perform microscopic validation of peptide binding ex vivo.
# SK-Hep1 xenograft tumors = experiment: Immunostaining on GPC3 negative SK-Hep1 xenograft sections; parameters: species or system mice; conditions: no GPC3 expression
# Description: FIGS. 18A-D show immunostaining on GPC3 negative HCC xenograft tumor.
# as §3
# human HBV-derived HCC = experiment: Immunofluorescence on human HBV-derived HCC specimens; conditions: 5 μM, 15 min
# Method: Formalin-fixed specimens of HBV-derived HCC from the bio-bank at the Peking University People's Hospital were used. The specimens were deparaffinized, and antigen retrieval was performed using standard methods. Specimens of HCC and non-tumorous liver were cut in 10 μm sections, and incubated with the ALL*-Cy5.5 peptide reagent at a concentration of 5 μM in 1× PBS for 15 min at RT. The sections were washed 3× with PBS and incubated overnight at 4° C. with a 1:1000 dilution of primary anti-GPC3 antibody (Santa Cruz Biotechnology, 1G12, sc-65443) overnight at 4° C. The sections were washed with PBS 3× and incubated with 1:500 dilution of Alexa Fluor 488-labeled secondary goat […] antibody (Invitrogen) for 1 hour at RT. The sections were fixed with 4% PFA for 10 min. The sections were then mounted with ProLong Gold reagent containing DAPI (Invitrogen). Confocal fluorescence images were collected with DAPI, FITC and Cy5.5 filters. A Pearson's correlation coefficient will be measured to assess co-localization of peptide and antibody binding.
# [1] = tested on: GPC3 positive tumor (from Hep3B cells); conditions: mouse, in vivo, iv
# Method: Mice bearing HCC xenograft tumor (arrowheads) were i.v. injected with 250 μL of 300 μM near NIR GPC3 targeting peptide ALL*-Cy5.5, scrambled control peptide QLE*-Cy5.5 and unlabeled Cy5.5 free dye alone. ALL*-Cy5.5 was also injected in mice bearing GPC3 negative tumor (from SK Hep-1 cells, arrows) as control of EPR effect. Pre-injection imaging confirmed no autofluorescence was present.
# [2] = 6 replicates, log-transformed data
sequence,measurement,setting,value
ALLANHEELFQT (SEQ ID NO: 1) peptide labeled with Cy5.5 via a GGGSK linker on the C-terminus (ALLANHEELFQTGGGSK-{Cy5.5}) [ALL*-Cy5.5],intensity difference Hep3B vs SK-Hep1 relative to the same difference for QLE*,Hep3B human HCC cells; [2],8.2 fold
same,fluorescence intensity from binding to cell surface,"Hep3B human HCC cells; Hep3B cells, confocal microscopy",strong fluorescence intensity
same,intensity difference HepG2 versus SK-Hep1 relative to the same difference for QLE*,HepG2 human HCC cells; [2],3.3 fold
same,fluorescence intensity from binding to cell surface,"HepG2 human HCC cells; HepG2 cells, confocal microscopy",strong fluorescence intensity
same,apparent association time constant k,Hep3B cells,0.11 min⁻¹
same,onset of binding,Hep3B cells,9.1 min
same,apparent association time constant k,Hep3B cells; FIG. 8B legend,0.11 min⁻¹
same,staining of cell surface on excised tumor xenograft (confocal),Hep3B xenograft; 40× magnification,intense staining
same,T/B ratio relative to QLE*-Cy5.5,"Hep3B xenograft; NIR laparoscope, 2 hours",2.8 fold
same,target-to-background (T/B) ratio,"Hep3B xenograft; NIR laparoscope, 2 hours after i.v. injection, n=8",8.3±1.3
same,cell surface staining of xenograft sections,"Hep3B xenograft tumors; Hep3B xenograft sections, compared with QLE*-Cy5.5",increased cell surface staining
same,"intensity from peptide binding, HCC vs normal",Hep3B xenograft tumors; n=26,2.22 fold
same,staining of normal mouse liver,Hep3B xenograft tumors; normal mouse liver sections,Minimal staining
same,staining of xenograft sections,SK-Hep1 xenograft tumors,No staining
same,binding to section of HBV-derived HCC on immunofluorescence,human HBV-derived HCC,strong binding
same,time of peak uptake/signal post injection,[1],2 h
